From the supplement of paper PMC10307832

Key:
Assay in all cases: relative viability (nuclei count vs DMSO), 5 days (fraction); higher = more cells survive
IDH-C35 + Foretinib = compound: Cc1ccccc1C(C(=O)NC1CCCCC1)N(C(=O)Cn1ccnc1C)c1cccc(F)c1 [IDH-C35] + COc1cc2c(Oc3ccc(NC(=O)C4(C(=O)Nc5ccc(F)cc5)CC4)cc3F)ccnc2cc1OCCCN1CCOCC1 [Foretinib] (partner 0.25 µM)
In short: (§1)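 Relative viability equals treated-well nuclei counts divided by vehicle-well nuclei counts. Counts came from 4× images of lung cancer cell lines grown in 1536-well plates for 5 days after pin-tool dosing on the day after seeding. Dosing used one drug alone or a fixed anchor-drug dose plus five library-drug doses (not always all listed) in √10 steps, and values are medians of duplicate plates.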

IDH-C35 + Trametinib = compound: Cc1ccccc1C(C(=O)NC1CCCCC1)N(C(=O)Cn1ccnc1C)c1cccc(F)c1 [IDH-C35] + CC(=O)Nc1cccc(-n2c(=O)n(C3CC3)c(=O)c3c(Nc4ccc(I)cc4F)n(C)c(=O)c(C)c32)c1 [Trametinib] (partner 0.02 µM)
In short: as §1

[1] = compound: CC1=C(C(=NN1)C)CC2=C(C3=C(S2)N(C(=O)N(C3=O)C)CC(C)C)C(=O)N4C[C@@H](CO4)O + Cc1nc(Nc2ncc(C(=O)Nc3c(C)cccc3Cl)s2)cc(N2CCN(CCO)CC2)n1 [Dasatinib] (partner 0.075 µM)
In short: as §1

[2] = compound: CC1=C(C(=NN1)C)CC2=C(C3=C(S2)N(C(=O)N(C3=O)C)CC(C)C)C(=O)N4C[C@@H](CO4)O + CC(C)C[C@H](NC(=O)[C@H](Cc1ccccc1)NC(=O)c1cnccn1)B(O)O [Bortezomib] (partner 0.002 µM)
In short: as §1

| Cell Line | relative viability (IDH-C35 + Foretinib; first compound 0.08 µM) | relative viability (IDH-C35 + Foretinib; first compound 0.253 µM) | relative viability (IDH-C35 + Foretinib; first compound 0.8 µM) | relative viability (IDH-C35 + Foretinib; first compound 8 µM) | relative viability (IDH-C35 + Trametinib; first compound 0.08 µM) | relative viability (IDH-C35 + Trametinib; first compound 0.253 µM) | relative viability (IDH-C35 + Trametinib; first compound 0.8 µM) | relative viability (IDH-C35 + Trametinib; first compound 2.53 µM) | relative viability (IDH-C35 + Trametinib; first compound 8 µM) | relative viability ([1]; first compound 0.0025 µM) | relative viability ([1]; first compound 0.007906 µM) | relative viability ([1]; first compound 0.025 µM) | relative viability ([1]; first compound 0.07906 µM) | relative viability ([1]; first compound 0.25 µM) | relative viability ([2]; first compound 0.0025 µM) | relative viability ([2]; first compound 0.007906 µM) | relative viability ([2]; first compound 0.025 µM) | relative viability ([2]; first compound 0.07906 µM) | relative viability ([2]; first compound 0.25 µM) | relative viability (IDH-C35 + Foretinib; first compound 2.53 µM) |
| --- | --- | --- | --- | --- | --- | --- | --- | --- | --- | --- | --- | --- | --- | --- | --- | --- | --- | --- | --- | --- |
| NCI-H596 | 0.948 | 0.796 | 0.775 | 0.763 | 0.892 | 0.722 | 0.808 | 0.746 | 0.737 | 0.586 | 0.619 | 0.658 | 0.512 | 0.594 | 0.997 | 1.11 | 1.05 | 1.15 | 0.98 | – |
| NCI-H727 | 0.87 | 0.693 | 1.07 | 0.764 | 0.376 | 0.357 | 0.34 | 0.393 | 0.372 | 0.293 | 0.416 | 0.501 | 0.292 | 0.396 | 0.919 | 0.583 | 0.694 | 0.716 | 0.873 | 0.832 |
| H3255 | 1.06 | 0.838 | 0.886 | 0.854 | 0.699 | 0.692 | 0.536 | 0.548 | 0.59 | 0.42 | 0.319 | 0.283 | 0.343 | 0.347 | 0.819 | 0.79 | 0.734 | 0.758 | 1.02 | 1.04 |
| NCI-H1437 | 1.29 | 1.28 | 1.25 | 1.23 | 0.514 | 0.522 | 0.534 | 0.51 | 0.489 | 0.393 | 0.409 | 0.314 | 0.488 | 0.434 | 0.669 | 0.568 | 0.516 | 0.441 | 0.601 | 1.29 |
| LU99A | 0.939 | 0.915 | 0.81 | 0.85 | 0.527 | 0.643 | 0.56 | 0.527 | 0.524 | 0.584 | 0.502 | 0.533 | 0.508 | 0.462 | 1.37 | 1.21 | 1.07 | 1.14 | 1.2 | 0.69 |
| HCC-827 | 1.05 | 0.964 | 1.01 | 1.05 | 0.525 | 0.583 | 0.462 | 0.519 | 0.512 | 0.288 | 0.317 | 0.32 | 0.203 | 0.24 | 0.923 | 1.04 | 0.985 | 0.913 | 1.08 | 1.03 |
| HCC-366 | 0.986 | 0.981 | 0.937 | 0.938 | 0.293 | 0.376 | 0.407 | 0.303 | 0.31 | 0.601 | 0.813 | 0.836 | 0.635 | 0.789 | 1.04 | 1.1 | 0.958 | 1.07 | 1.13 | – |
| BEN | 0.631 | 0.685 | 0.616 | 0.593 | 0.954 | 1.04 | 1.02 | 1.16 | 1.16 | 0.296 | 0.289 | 0.277 | 0.274 | 0.298 | 0.772 | 0.74 | 0.532 | 0.675 | 0.665 | 0.629 |
